Patent US9199983B2, “3-aryl-6-aryl-[1,2,4]triazolo[4,3-α]pyridines as inhibitors of cell proliferation and the use thereof” (priority 2010, dated 2015)

Experiments:
[1] = tested on: Human lung cancer cell line A549; assay: MTT cancer cell cytotoxicity assay, A549; assay type: cell-based; settings: A549 cells, 48-72 h
Protocol: (§1) Identification of 3-(2-methoxyphenyl)-6-(4-methoxyphenyl)-[1,2,4]triazolo[4,3-a]pyridine and analogs as inhibitors of cell proliferation that were evaluated with standard MTT cancer cell cytotoxicity assay (IC50)
(§2) Human lung cancer cell line A549, breast cancer cell line T47D, liver cancer cell lines HepG2 and SMMC7721 as well as a mouse melanoma cell line B16F10 were used in the study. The cells were cultured in corresponding growth media recommended by American Type Culture Collection (ATCC) with the supplementation of penicillin G (100 U/ml)/streptomycin (100 µg/ml), and 10% fetal bovine serum (Hangzhou Sijiqing Biological Engineering Materials, Co., Ltd. China) at 37° C. in a humidified atmosphere containing 5% CO2. Cells at about 80% confluency were harvested by trypsinization. Cells were centrifuged, re-suspended in fresh growth media and counted. Corresponding numbers of cells were seeded to 96-well cell culture plates (HepG2 cell, T-47D and A549 cells at 3000 cells/well, SMMC-7721 cells at 5000 cells/well and B16F10 cells at 2000 cells/well) in a total volume of […]. Cells were incubated in CO2 incubator over night to allow the cells to attach. In next day, […] of medium containing testing (from 10 μM to 1 nM) or reference compounds was added to each well of the cells. Media without compound were used as 100% control. Cells were treated with each concentration of compounds in triplicates to ensure data accuracy. Cells were incubated with compounds in CO2 incubator for an additional 48-72 h at 37° C. After incubation, cells were removed from the CO2 incubator and […] of 5 mg/ml MTT (3-(4,5-dimethylthiazole-2-yl)-2,5-diphenyltetrazoliumbromide, Sigma) solution in PBS was added to each well. Cells were returned to CO2 incubator and incubated for additional 4 h. After the incubation, media were removed by aspiration and […] DMSO was added to each well. Plates were sealed with aluminum foil and shaked mildly on an orbital shaker for 10 min at room temperature. The absorption was measured at 550 nm with a plate reader (Varioskan Flash, Thermo Fisher Scientific) with 660 nm reading used as background control. The relative absorbance readings were calculated by subtracting readings at 660 nm from that at 550 nm. The relative absorbance was plotted again the concentrations of the testing compounds and the plots were fitted with a one-site lg(IC50) equation using Prism 5 software (GraphPad Software, Inc). The equation used in the curve fitting is as follows: relative absorbance reading=background reading+(maximal reading−brackground reading)/(1+10 ^(compound concentration-log IC50)). The background reading used in the calculation was obtained with 100% cell death using a reference anticancer drug, whereas the maximal reading was obtained in the well with no added compound. The IC50 value calculated from the equation represents the cytotoxic potency of a particular compound.

[2] = tested on: liver cancer cell line HepG2; assay: MTT cancer cell cytotoxicity assay, HepG2; assay type: cell-based, human; settings: HepG2 cells, 48-72 h
Protocol: as §1, §2

[3] = tested on: liver cancer cell line SMMC7721; assay: MTT cancer cell cytotoxicity assay, SMMC7721; assay type: cell-based, human; settings: 48-72 h
Protocol: as §1, §2

[4] = tested on: breast cancer cell line T47D; assay: MTT cancer cell cytotoxicity assay, T47D; assay type: cell-based, human; settings: T47D cells, 48-72 h
Protocol: as §1, §2

[5] = tested on: mouse melanoma cell line B16F10; assay: MTT cancer cell cytotoxicity assay, B16F10; assay type: cell-based; settings: 48-72 h
Protocol: as §1, §2

[6] = tested on: caspase-3 activation; assay: Caspase-3 activation (apoptosis induction) in T-47D cells; assay type: cell-based; settings: Homo sapiens; T47D cells, 24 h treatment; read-out: EC50 to induce caspase-3 activation, T47D
Protocol: Identification of 3-(2-methoxyphenyl)-6-(4-methoxyphenyl)-[1,2,4]triazolo[4,3-a]pyridine and analogs as inducers of apoptosis in solid tumor cells
Human breast cancer cell line T-47D and lung cancer cell line A549, growing in DMEM/F12+10% FBS media were seeded to a density of 20000 cells/well in 96-well cell culture plate and grew overnight (18-24 h) in CO2 cell culture incubator at 37° C. Next day the medium were removed by aspiration and […] fresh growth media was added to each well followed by […] of growth media containing 10× concentration of reference or testing compounds with 10% DMSO. Twenty four hours later, cell culture plates were centrifuged at 1000 g for 5 min and the supernatant was removed by emptying contents into a reservoir. Fifty μl of Lysis Buffer (10 mM Tris, pH7.5, 0.1M NaCl, 1 Mm EDTA, 0.01% Triton X-100) was added to each well and the plates were incubated with gentle agitation on an orbital shaker at 4° C. for 30 min. The plates were then centrifuged at 1000 g for 10 min at 4° C. and 20 μl of the supernatant was transferred from each well to a corresponding well in a black 384-well. Twenty μl of caspase-3 assay buffer (20 mM PIPES, pH7.4, 4 Mm EDTA and 0.2% CHAPS) containing 20 μM fluorogenic caspase-3 substrate ((Ac-DEVD)2-R110, AnaSpec Cat #60304-5) was added to each well. The samples were mixed by agitation and incubated at 37° C. for 3 h. The fluorescent intensity of each well was read on a fluorescent plate reader (Varioskan Flash, Thermo Fisher Scientific) with excitation wavelength at 496 nm and emission wavelength at 520 nm. The activity of compounds on caspase-3 activation was determined by plotting the relative fluorescent unit (RFU) against the testing concentrations of the compounds. The EC50 values were determined by fitting the above responding curves into Prism sigmoidal dose-response equation (GraphPad Software, Inc).

[7] = Homo sapiens, SMMC-7721, SMMC7721 cells
[8] = Mus musculus, B16-F10, B16F10 cells

| Structure (SMILES) | IC50 ([1]; Homo sapiens) [nM] | IC50 ([2]; Homo sapiens) [nM] | IC50 [3, 7] [nM] | IC50 ([4]; Homo sapiens) [nM] | IC50 [5, 8] [nM] | EC50 [6] [nM] | IC50 [1] [nM] | IC50 [2] [nM] | IC50 ([3]; SMMC7721 cells) [nM] | IC50 [4] [nM] | IC50 ([5]; B16F10 cells) [nM] |
| --- | --- | --- | --- | --- | --- | --- | --- | --- | --- | --- | --- |
| COc1cc(Cl)ccc1-c1nnc2ccc(-c3ccc(C)c(N)c3)cn12 [Example 90, 6-(3-Amino-4-methylphenyl)-3-(4-chloro-2-methoxyphenyl)-[1,2,4]triazolo[4,3-a]pyridine] | 7.1 | 5.4 | 2.3 | 5.5 | 4.6 | – | – | – | – | – | – |
| COc1ccccc1-c1ccc2nnc(-c3ccccc3OC)n2c1 [Example 3, 3,6-Bis(2-methoxyphenyl)-[1,2,4]triazolo[4,3-a]pyridine] | > 10000 | > 10000 | > 10000 | > 10000 | > 10000 | – | – | – | – | – | – |
| COc1ccc(-c2ccc3nnc(-c4ccc(C(F)(F)F)cc4OC)n3c2)cc1 [Example 60, 3-(2-Methoxy-4-trifluoromethylphenyl)-6-(4-methoxyphenyl)-[1,2,4]triazolo[4,3-a]pyridine] | 91 | 41 | 18 | 68 | 37 | – | – | – | – | – | – |
| CCOc1ccc(-c2ccc3nnc(-c4ccccc4OC)n3c2)cc1 [Example 38, 6-(4-Ethoxyphenyl)-3-(2-methoxyphenyl)-[1,2,4]triazolo[4,3-a]pyridine] | 49 | 80 | 27 | 74 | 129 | – | – | – | – | – | – |
| COc1ccc(-c2ccc3nnc(-c4ccc(OC)cc4OC)n3c2)cc1 [Example 71, 3-(2,4-Dimethoxyphenyl)-6-(4-methoxyphenyl)-[1,2,4]triazolo[4,3-a]pyridine] | 16 | 15 | 8.7 | 22 | – | 117 | – | – | – | – | – |
| CCCCCCOc1ccc(-c2ccc3nnc(-c4ccccc4OC)n3c2)cc1 [Example 34, 6-(4-Hexyloxyphenyl)-3-(2-methoxyphenyl)-[1,2,4]triazolo[4,3-a]pyridine] | > 10000 | > 10000 | > 10000 | > 10000 | > 10000 | – | – | – | – | – | – |
| COc1cccc(-c2ccc3nnc(-c4ccccc4OC)n3c2)c1 [Example 2, 3-(2-Methoxyphenyl)-6-(3-methoxyphenyl)-[1,2,4]triazolo[4,3-a]pyridine] | 252 | 189 | 79 | 184 | 152 | – | – | – | – | – | – |
| COc1ccccc1-c1nnc2ccc(-c3ccc([N+](=O)[O-])cc3)cn12 [Example 39, 3-(2-Methoxyphenyl)-6-(4-nitrophenyl)-[1,2,4]triazolo[4,3-a]pyridine] | 3000 | 3250 | 5440 | > 10000 | > 10000 | – | – | – | – | – | – |
| COc1cc(C)ccc1-c1nnc2ccc(-c3ccc(C)c(N)c3)cn12 [Example 91, 6-(3-Amino-4-methylphenyl)-3-(4-methyl-2-methoxyphenyl)-[1,2,4]triazolo[4,3-a]pyridine] | 42 | 39 | 13 | 31 | 23 | – | – | – | – | – | – |
| COc1ccccc1-c1nnc2ccc(-c3ccc(OC)c([N+](=O)[O-])c3)cn12 [Example 40, 6-(4-Methoxy-3-nitrophenyl)-3-(2-methoxyphenyl)-[1,2,4]triazolo[4,3-a]pyridine] | 2660 | 2460 | 72 | 896 | > 10000 | – | – | – | – | – | – |
| CNc1ccc(-c2ccc3nnc(-c4ccc(C)cc4OC)n3c2)cc1 [Example 92, 6-(4-Methylaminophenyl)-3-(4-methyl-2-methoxyphenyl)-[1,2,4]triazolo[4,3-a]pyridine] | 11 | 23 | 23 | 8.8 | 7.7 | – | – | – | – | – | – |
| COc1ccccc1-c1nnc2ccc(-c3ccc(C(F)(F)F)cc3)cn12 [Example 27, 3-(2-Methoxyphenyl)-6-(4-trifluoromethylphenyl)-[1,2,4]triazolo[4,3-a]pyridine] | 9630 | 2640 | 2250 | 4260 | 3820 | – | – | – | – | – | – |
| CNc1ccc(-c2ccc3nnc(-c4ccc(Cl)cc4OC)n3c2)cc1 [Example 88, 3-(4-Chloro-2-methoxyphenyl)-6-(4-methylaminophenyl)-[1,2,4]triazolo[4,3-a]pyridine] | 4.4 | 6 | 1.8 | 3.6 | 5.1 | – | – | – | – | – | – |
| COc1ccccc1-c1nnc2ccc(-c3ccc(OC(C)C)cc3)cn12 [Example 6, 6-(4-Isopropoxyphenyl)-3-(2-methoxyphenyl)-[1,2,4]triazolo[4,3-a]pyridine] | 1060 | 1160 | 535 | 697 | 591 | – | – | – | – | – | – |
| COc1ccccc1-c1nnc2ccc(-c3ccc(N(C)C)cc3)cn12 [Example 17, 6-(4-Dimethylaminophenyl)-3-(2-methoxyphenyl)-[1,2,4]triazolo[4,3-a]pyridine] | 29 | 48 | 14 | 65 | – | 86 | – | – | – | – | – |
| CCc1ccc(-c2ccc3nnc(-c4ccccc4OC)n3c2)cc1 [Example 7, 6-(4-Ethylphenyl)-3-(2-methoxyphenyl)-[1,2,4]triazolo[4,3-a]pyridine] | 217 | 136 | 59 | 158 | 220 | – | – | – | – | – | – |
| COc1ccccc1-c1nnc2ccc(-c3ccccc3)cn12 [Example 24, 3-(2-Methoxyphenyl)-6-phenyl-[1,2,4]triazolo[4,3-a]pyridine] | > 10000 | > 10000 | > 10000 | > 10000 | > 10000 | – | – | – | – | – | – |
| COc1ccccc1-c1nnc2ccc(-c3ccc(OC(F)(F)F)cc3)cn12 [Example 11, 3-(2-Methoxyphenyl)-6-(4-trifluoromethoxyphenyl)-[1,2,4]trizolo[4,3-a]pyridine] | – | – | – | – | – | – | > 10000 | 5290 | 2910 | > 10000 | 5000 |
| COc1ccc(-c2ccc3nnc(-c4ccccc4OC)n3c2)c(OC)c1 [Example 36, 6-(2,4-Dimethoxyphenyl)-3-(2-methoxyphenyl)-[1,2,4]triazolo[4,3-a]pyridine] | 74 | 78 | 29 | 315 | – | – | – | – | – | – | – |
| COc1ccc(-c2ccc3nnc(-c4ccc(OC)cc4)n3c2)cc1 [Example 64, 3,6-Bis(4-methoxyphenyl)-[1,2,4]triazolo[4,3-a]pyridine] | 641 | 568 | 150 | 341 | – | – | – | – | – | – | – |
